Key:
Type in all cases: in vivo, Wistar rats
[1] = system: STZ-induced diabetic rats; assay: Study No 2: body weight, water intake and food intake in STZ-induced diabetic rats
[2] = system: STZ-induced diabetic rats; assay: Study No 1: biochemical parameters in STZ-induced diabetic rats; details: after 21 days
Experimental: (§1) In this experiment 48 Wistar rats weighing 130-150 g of either sex were divided randomly into 8 groups consisting of 6 rats each. The study drugs suspended in vehicle [0.1% w/v suspension of Tween 80 and carboxymethylcellulose (CMC) in water] were administered for orally for 21 days. Group 1 (normal vehicle control) consisted of normal rats that neither received streptozotocin nor any test drug; Group 2 served as streptozotocin induced diabetic control (Diabetes was induced in rats by single administration of streptozotocin (60 mg/kg/i.p) dissolved in 0.1 M-citrate buffer, pH 4.5). Forty-eight hours later, blood samples were collected and glucose levels were determined to confirm the development of diabetes. […] Group 3 was diabetic rats treated with dose equivalent to human therapeutic dose of sitagliptin (STG) (11 mg/kg); Group 4 was diabetic rats treated with dose equivalent to human therapeutic dose of Hydroxychloroquine (HCQ) (46 mg/kg), Group 5 was diabetic rats treated with combination of HCQ 46 mg/kg and STG11 mg/kg; […] For other biochemical parameters i.e. […] Other parameters like body weight, food intake and water intake were evaluated weekly till day 21st.

[3] = system: STZ-induced diabetic rats; assay: Study No 1: body weight, food intake and water intake in STZ-induced diabetic rats; details: for AVERAGE WATER INTAKE: oral
Experimental: as §1

[4] = Day 28, HCQ 45, VG 12, SG 0.6 mg/kg alone, HCQ+VG 45+12, HCQ+SG 45+0.6 mg/kg/day, oral
[5] = subtherapeutic dose: STG 5.5, HCQ 23, STG+HCQ 5.5+23 mg/kg/day oral
[6] = therapeutic dose: STG 11, HCQ 46, STG+HCQ 11+46 mg/kg/day oral

## CCN(CCO)CCCC(C)Nc1ccnc2cc(Cl)ccc12 (stereo not drawn) [HCQ, Hydroxychloroquine]
[1]; [4]
  AVERAGE FOOD INTAKE: 14.00 g
  AVERAGE WATER INTAKE: 25.79 mL
  Body Weight: 198.17 ± 9.15 g
[1]; monotherapies, p≦0.05
  body weight as compared to diabetic control group: significant increase
[2]; [5]
  Creatinine: 1.79
  HDL-C: 24.99 mg/dL
  HbA1c: 5.30
  Insulin (serum): 4.71
  SGOT: 57.29
  SGPT: 58.12
  TC: 166.69 mg/dL
  TG: 130.65 mg/dL
  Total Protein: 4.03 g/dL
  Urea: 46.38 mg/dL
[2]; [6]
  Albumin: 2.33 g/dL
  Creatinine: 1.72
  HDL-C: 25.07 mg/dL
  HbA1c: 4.91
  Insulin (serum): 5.97
  SGOT: 53.77
  SGPT: 55.94
  TC: 158.57 mg/dL
  TG: 124.68 mg/dL
  Total Protein: 4.12 g/dL
  Urea: 43.85 mg/dL
[3]; Day 1, Sub-The (subtherapeutic dose)
  AVERAGE WATER INTAKE: 31.67 mL
[3]; Day 1, The (therapeutic dose)
  AVERAGE WATER INTAKE: 30.00 mL
[3]; Day 1, subtherapeutic dose: STG 5.5, HCQ 23, STG+HCQ 5.5+23 mg/kg oral
  Body Weight: 133.33 ± 17.67 g
[3]; Day 1, subtherapeutic dose: STG 5.5, HCQ 23, combination 5.5+23 mg/kg oral
  AVERAGE FOOD INTAKE: 12.17 g
[3]; Day 1, therapeutic dose: STG 11, HCQ 46, STG+HCQ 11+46 mg/kg oral
  Body Weight: 140.33 ± 14.60 g
[3]; Day 1, therapeutic dose: STG 11, HCQ 46, combination 11+46 mg/kg oral
  AVERAGE FOOD INTAKE: 11.50 g
[3]; Day 7, Sub-The (subtherapeutic dose)
  AVERAGE WATER INTAKE: 32.17 mL
[3]; Day 7, The (therapeutic dose)
  AVERAGE WATER INTAKE: 29.17 mL
[3]; Day 7, subtherapeutic dose: STG 5.5, HCQ 23, STG+HCQ 5.5+23 mg/kg oral
  Body Weight: 133.67 ± 16.61 g
[3]; Day 7, subtherapeutic dose: STG 5.5, HCQ 23, combination 5.5+23 mg/kg oral
  AVERAGE FOOD INTAKE: 11.50 g
[3]; Day 7, therapeutic dose: STG 11, HCQ 46, STG+HCQ 11+46 mg/kg oral
  Body Weight: 141.17 ± 14.26 g
[3]; Day 7, therapeutic dose: STG 11, HCQ 46, combination 11+46 mg/kg oral
  AVERAGE FOOD INTAKE: 10.33 g
[3]; Day 14, Sub-The (subtherapeutic dose)
  AVERAGE WATER INTAKE: 32.17 mL
[3]; Day 14, The (therapeutic dose)
  AVERAGE WATER INTAKE: 28.33 mL
[3]; Day 14, subtherapeutic dose: STG 5.5, HCQ 23, STG+HCQ 5.5+23 mg/kg oral
  Body Weight: 135.17 ± 16.29 g
[3]; Day 14, subtherapeutic dose: STG 5.5, HCQ 23, combination 5.5+23 mg/kg oral
  AVERAGE FOOD INTAKE: 11.83 g
[3]; Day 14, therapeutic dose: STG 11, HCQ 46, STG+HCQ 11+46 mg/kg oral
  Body Weight: 142.67 ± 13.52 g
[3]; Day 14, therapeutic dose: STG 11, HCQ 46, combination 11+46 mg/kg oral
  AVERAGE FOOD INTAKE: 8.67 g
[3]; Day 21, Sub-The (subtherapeutic dose)
  AVERAGE WATER INTAKE: 31.83 mL
[3]; Day 21, The (therapeutic dose)
  AVERAGE WATER INTAKE: 28.83 mL
[3]; Day 21, subtherapeutic dose: STG 5.5, HCQ 23, STG+HCQ 5.5+23 mg/kg oral
  Body Weight: 137.00 ± 15.75 g
[3]; Day 21, subtherapeutic dose: STG 5.5, HCQ 23, combination 5.5+23 mg/kg oral
  AVERAGE FOOD INTAKE: 11.67 g
[3]; Day 21, therapeutic dose: STG 11, HCQ 46, combination 11+46 mg/kg oral
  AVERAGE FOOD INTAKE: 8.33 g

Reference: patent US20140128402A1, “PHARMACEUTICAL COMBINATION” (IPCA Laboratories Limited, priority 2011, published 2014)
